Measurements as given in paper PMC3433420 (PLoS ONE, 2012).
Residues, ends and D or L forms follow the SMILES beside them.

Assays:
[1] = molecular target: T1, SH2 and PTB domains (Homo sapiens, UniProt P29353); assay: In-house protein microarrays (with or without 5 mM DTT), protein named per line; type: binding; settings: protein SHC1, array fabrication # 39329
T1 construct: thioredoxin; made in house; host or cells: BL21(DE3)pLysS E. coli
T1 sequence (P29353 1-583): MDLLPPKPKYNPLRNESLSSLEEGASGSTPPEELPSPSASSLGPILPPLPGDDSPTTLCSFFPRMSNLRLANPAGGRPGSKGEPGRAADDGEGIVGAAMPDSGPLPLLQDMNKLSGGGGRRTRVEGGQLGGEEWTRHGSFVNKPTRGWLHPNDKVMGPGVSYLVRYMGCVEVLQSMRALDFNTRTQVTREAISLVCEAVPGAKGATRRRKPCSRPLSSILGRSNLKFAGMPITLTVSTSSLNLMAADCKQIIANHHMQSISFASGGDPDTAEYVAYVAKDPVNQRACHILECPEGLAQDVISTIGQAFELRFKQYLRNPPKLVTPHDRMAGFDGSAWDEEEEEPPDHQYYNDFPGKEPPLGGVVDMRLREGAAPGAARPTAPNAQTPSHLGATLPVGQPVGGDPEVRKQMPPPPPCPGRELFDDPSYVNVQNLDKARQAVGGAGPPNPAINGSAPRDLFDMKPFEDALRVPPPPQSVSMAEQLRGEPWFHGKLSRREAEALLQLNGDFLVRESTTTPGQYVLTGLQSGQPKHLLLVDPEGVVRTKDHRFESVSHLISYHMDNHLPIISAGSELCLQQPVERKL
Method in brief: (§1)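 Recombinant domains (~40 µM) spotted in duplicate on aldehyde slides, quenched 1 h at room temperature in HEPES/KCl/Tween-20 buffer pH 7.8 with 5 mM DTT and 1% BSA, then probed with rhodamine-labeled peptide. Thioredoxin-subtracted mean fluorescence fitted for KD.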

[2] = molecular target: T2, SH2 and PTB domains (Homo sapiens, UniProt P19174); assay: as above; type: binding
T2 construct: thioredoxin; made in house; host or cells: BL21(DE3)pLysS E. coli
T2 sequence (P19174 1-1290): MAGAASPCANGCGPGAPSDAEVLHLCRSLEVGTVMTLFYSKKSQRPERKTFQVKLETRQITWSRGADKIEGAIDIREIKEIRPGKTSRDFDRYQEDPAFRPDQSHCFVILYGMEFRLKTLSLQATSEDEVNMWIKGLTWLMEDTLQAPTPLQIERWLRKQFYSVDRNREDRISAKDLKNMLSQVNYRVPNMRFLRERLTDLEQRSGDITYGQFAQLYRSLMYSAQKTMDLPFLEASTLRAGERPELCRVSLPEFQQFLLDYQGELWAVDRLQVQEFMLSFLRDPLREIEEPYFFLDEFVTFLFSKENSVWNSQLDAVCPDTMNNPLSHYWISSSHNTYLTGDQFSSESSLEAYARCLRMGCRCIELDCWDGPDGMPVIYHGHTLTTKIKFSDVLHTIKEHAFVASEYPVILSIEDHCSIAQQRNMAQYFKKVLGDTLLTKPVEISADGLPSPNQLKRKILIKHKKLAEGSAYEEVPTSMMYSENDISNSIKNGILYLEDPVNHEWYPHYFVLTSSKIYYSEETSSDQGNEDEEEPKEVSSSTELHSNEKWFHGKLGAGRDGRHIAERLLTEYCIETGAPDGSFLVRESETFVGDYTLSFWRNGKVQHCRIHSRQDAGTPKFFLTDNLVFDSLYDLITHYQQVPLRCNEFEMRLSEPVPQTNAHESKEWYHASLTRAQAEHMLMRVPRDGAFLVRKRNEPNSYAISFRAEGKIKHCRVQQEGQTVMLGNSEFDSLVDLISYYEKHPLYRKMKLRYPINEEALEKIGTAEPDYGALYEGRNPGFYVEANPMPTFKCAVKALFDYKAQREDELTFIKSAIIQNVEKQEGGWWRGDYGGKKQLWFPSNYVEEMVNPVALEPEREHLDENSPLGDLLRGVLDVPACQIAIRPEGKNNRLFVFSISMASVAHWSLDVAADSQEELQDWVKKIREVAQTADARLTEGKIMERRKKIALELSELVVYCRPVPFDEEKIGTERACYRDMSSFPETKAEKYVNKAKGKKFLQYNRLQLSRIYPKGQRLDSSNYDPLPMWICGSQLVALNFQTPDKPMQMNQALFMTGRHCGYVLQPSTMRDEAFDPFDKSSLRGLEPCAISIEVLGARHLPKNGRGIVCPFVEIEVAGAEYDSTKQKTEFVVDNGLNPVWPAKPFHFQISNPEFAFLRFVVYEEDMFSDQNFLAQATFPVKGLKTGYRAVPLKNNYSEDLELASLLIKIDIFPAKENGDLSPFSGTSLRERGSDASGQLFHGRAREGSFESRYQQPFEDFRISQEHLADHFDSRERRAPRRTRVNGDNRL
Method in brief: as §1

[3] = molecular target: T3, SH2 and PTB domains (Homo sapiens, UniProt P29350); assay: as above; type: binding
T3 construct: thioredoxin; made in house; host or cells: BL21(DE3)pLysS E. coli
Method in brief: as §1

[4] = molecular target: T4, SH2 and PTB domains (Homo sapiens, UniProt Q96JZ2); assay: as above; type: binding; settings: protein HSH2D; PM assay replicate # 39307; array fabrication # 39286
T4 construct: thioredoxin; made in house; host or cells: BL21(DE3)pLysS E. coli
Method in brief: as §1

[5] = molecular target: STAP1 SH2 domain (Homo sapiens, UniProt Q9ULZ2); assay: FP saturation binding assay
Sequence of STAP1 SH2 domain (Q9ULZ2 177-280 limits assumed): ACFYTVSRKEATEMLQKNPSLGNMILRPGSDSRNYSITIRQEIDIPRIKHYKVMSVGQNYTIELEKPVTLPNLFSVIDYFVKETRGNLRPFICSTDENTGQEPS

T3 sequence (P29350 whole entry, the tested form may be a part): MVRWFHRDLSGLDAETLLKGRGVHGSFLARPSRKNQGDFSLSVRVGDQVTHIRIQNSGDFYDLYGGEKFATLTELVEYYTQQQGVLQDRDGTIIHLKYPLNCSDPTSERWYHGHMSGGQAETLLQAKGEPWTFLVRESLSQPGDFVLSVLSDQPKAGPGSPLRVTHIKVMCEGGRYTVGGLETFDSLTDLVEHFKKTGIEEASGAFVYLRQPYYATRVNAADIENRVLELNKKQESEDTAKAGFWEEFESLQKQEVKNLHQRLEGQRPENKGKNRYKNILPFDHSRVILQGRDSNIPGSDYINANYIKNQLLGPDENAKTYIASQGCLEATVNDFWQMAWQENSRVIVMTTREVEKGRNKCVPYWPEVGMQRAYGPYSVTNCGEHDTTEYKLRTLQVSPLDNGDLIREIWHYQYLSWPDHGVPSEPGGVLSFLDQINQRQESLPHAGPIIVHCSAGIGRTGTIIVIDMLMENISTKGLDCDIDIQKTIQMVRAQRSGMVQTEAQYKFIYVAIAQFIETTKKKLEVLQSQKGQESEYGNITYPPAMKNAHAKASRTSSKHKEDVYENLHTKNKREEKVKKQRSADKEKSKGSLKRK
T4 sequence (Q96JZ2 whole entry, the tested form may be a part): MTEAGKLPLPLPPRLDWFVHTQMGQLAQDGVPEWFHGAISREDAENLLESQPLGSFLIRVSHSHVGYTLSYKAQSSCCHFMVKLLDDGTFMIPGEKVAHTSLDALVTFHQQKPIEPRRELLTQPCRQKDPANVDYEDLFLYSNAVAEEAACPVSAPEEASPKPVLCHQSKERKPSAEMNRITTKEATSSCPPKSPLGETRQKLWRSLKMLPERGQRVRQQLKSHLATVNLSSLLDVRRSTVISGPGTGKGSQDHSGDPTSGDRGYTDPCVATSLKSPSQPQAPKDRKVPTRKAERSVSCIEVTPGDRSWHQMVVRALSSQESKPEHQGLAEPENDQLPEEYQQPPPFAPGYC

With CC(C)C[C@H](NC(=O)[C@@H]1CCCN1)C(=O)N[C@@H](CCC(N)=O)C(=O)N[C@@H](CCCNC(=N)N)C(=O)N[C@@H](Cc1ccc(OP(=O)(O)O)cc1)C(=O)N[C@@H](CO)C(=O)N[C@@H](CCC(=O)O)C(=O)N[C@@H](CC(=O)O)C(=O)N1CCC[C@H]1C(=O)N[C@H](C(=O)N[C@H](C(=O)N1CCC[C@H]1C(=O)N[C@@H](CC(=O)O)C(=O)O)C(C)C)[C@@H](C)O [ErbB2 pY1112] (HELM PEPTIDE1{P.L.Q.R.[O=C([C@H](Cc1ccc(OP(=O)(O)O)cc1)N[*:1])[*:2]].S.E.D.P.T.V.P.D}$$$$V2.0) the “Kd” value ([1]; PM assay replicate # 39331) was 1.26 µM and the “Kd” value ([1]; PM assay replicate # 39336) was 3.06 µM.

CC(C)C[C@H](NC(=O)[C@@H]1CCCN1C(=O)[C@H](C)NC(=O)[C@@H](NC(=O)[C@H](Cc1ccc(OP(=O)(O)O)cc1)NC(=O)CNC(=O)[C@H](CC(=O)O)NC(=O)[C@@H](NC(=O)[C@@H](N)CCC(=O)O)[C@@H](C)O)C(C)C)C(=O)N[C@H](C(=O)N[C@@H](CS)C(=O)N[C@@H](CO)C(=O)N[C@@H](CC(=O)O)C(=O)O)[C@@H](C)O [ErbB2 pY1127] was tested, and the “Kd” value ([2]; protein PLCG1-C, PM assay replicate # 39336, array fabrication # 39329) was 4.09 µM, the “Kd” value ([2]; protein PLCG1-C, PM assay replicate # 39337, array fabrication # 39329) was 0.11 µM and the “Kd” value ([2]; protein PLCG1-NC, PM assay replicate # 39336, array fabrication # 39329) was 8.82 µM. For the same compound, the “Kd” value ([2]; protein PLCG1-NC, PM assay replicate # 39337, array fabrication # 39329) was 1.92 µM, the “Kd” value ([3]; protein PTPN6-NC, PM assay replicate # 39336, array fabrication # 39329) was 1.62 µM and the “Kd” value ([3]; protein PTPN6-NC, PM assay replicate # 39337, array fabrication # 39329) was 1.62 µM. The “Kd” value ([1]; PM assay replicate # 39336) was 0.98 µM and the “Kd” value ([1]; PM assay replicate # 39337) was 0.82 µM.

With CCN(CC)c1ccc2c(-c3ccc(C(=O)N[C@@H](CC(N)=O)C(=O)NCC(=O)N4CCC[C@H]4C(=O)N4CCC[C@H]4C(=O)N[C@@H](CCCCN)C(=O)N[C@@H](C)C(=O)N[C@@H](CCC(=O)O)C(=O)N[C@@H](CC(=O)O)C(=O)N[C@@H](CCC(=O)O)C(=O)N[C@@H](Cc4ccc(OP(=O)(O)O)cc4)C(=O)N[C@H](C(=O)N[C@@H](CC(N)=O)C(=O)N[C@@H](CCC(=O)O)C(=O)N4CCC[C@H]4C(=O)N[C@@H](CC(C)C)C(=O)N[C@@H](Cc4ccc(O)cc4)C(=O)N[C@@H](CC(C)C)C(=O)N[C@@H](CC(=O)O)C(=O)O)C(C)C)cc3C(=O)[O-])c3ccc(=[N+](CC)CC)cc-3oc2c1 [ErbB4 1202 (18-mer)] (HELM PEPTIDE1{[CCN(CC)c1ccc2c(-c3ccc(C(=O)[*:2])cc3C(=O)[O-])c3ccc(=[N+](CC)CC)cc-3oc2c1].N.G.P.P.K.A.E.D.E.[O=C([C@H](Cc1ccc(OP(=O)(O)O)cc1)N[*:1])[*:2]].V.N.E.P.L.Y.L.D}$$$$V2.0) the “Kd” value ([2]; protein PLCG1-C, PM assay replicate # 39307, array fabrication # 39286) was 1.26 µM and the “Kd” value [4] was 0.97 µM.

CC(C)C[C@H](NC(=O)[C@H](Cc1ccc(OP(=O)(O)O)cc1)NC(=O)[C@H](CC(C)C)NC(=O)[C@@H]1CCCN1C(=O)[C@H](CCC(=O)O)NC(=O)[C@H](CC(N)=O)NC(=O)[C@@H](NC(=O)[C@H](Cc1ccc(O)cc1)NC(=O)[C@H](CCC(=O)O)NC(=O)[C@H](CC(=O)O)NC(=O)[C@@H](N)CCC(=O)O)C(C)C)C(=O)N[C@@H](CC(N)=O)C(=O)N[C@H](C(=O)N[C@@H](Cc1ccccc1)C(=O)N[C@@H](C)C(=O)N[C@@H](CC(N)=O)C(=O)N[C@H](C(=O)N[C@@H](CC(=O)O)C(=O)O)[C@@H](C)O)[C@@H](C)O [ErbB4 1208 18-mer] (HELM PEPTIDE1{E.D.E.Y.V.N.E.P.L.[O=C([C@H](Cc1ccc(OP(=O)(O)O)cc1)N[*:1])[*:2]].L.N.T.F.A.N.T.D}$$$$V2.0) was tested, and the Kd [5] was 10.1 µM.

CC[C@H](C)[C@H](NC(=O)[C@H](CC(N)=O)NC(=O)[C@H](CC(N)=O)NC(=O)[C@H](CCCCN)NC(=O)[C@H](CC(C)C)NC(=O)[C@H](Cc1ccc(OP(=O)(O)O)cc1)NC(=O)[C@H](CCC(=O)O)NC(=O)[C@H](C)NC(=O)[C@H](CCCCN)NC(=O)CNC(=O)[C@H](CC(C)C)NC(=O)[C@@H](NC(=O)[C@H](CC(N)=O)NC(=O)[C@H](C)NC(=O)[C@@H](N)Cc1ccccc1)[C@@H](C)O)C(=O)N[C@@H](CC(C)C)C(=O)N[C@@H](CO)C(=O)N[C@@H](CC(=O)O)C(=O)O [ErbB4 pY1221 (18-mer)] (HELM PEPTIDE1{F.A.N.T.L.G.K.A.E.[O=C([C@H](Cc1ccc(OP(=O)(O)O)cc1)N[*:1])[*:2]].L.K.N.N.I.L.S.D}$$$$V2.0) was tested, and the “Kd” value ([3]; protein PTPN6-C, PM assay replicate # 39307, array fabrication # 39286) was 716.01 µM and the “Kd” value [4] was 0.99 µM.
